Structures are written as SMILES. Read-outs that look alike come from different tables or passages of the source.

The values that follow come from patent US20140243332A1, “METHODS OF TREATING CANCERS CHARACTERIZED BY ABERRENT ROS1 ACTIVITY” (Oregon Health & Science University, priority 2013, published 2014).

Assay [1] has as its target Ba/F3 FIG-ROS kinase domain mutants (Homo sapiens, UniProt P08922, cells depend on it, form not given). Nature of the assay: Cell viability assay, all tested Ba/F3 FIG-ROS kinase domain mutants. Format: cell-based. The following applies: V2098I, G1971E, L1982F, C2060G, L1947R, E1935G; read-out: IC50 across all tested FIG-ROS mutants. The protocol:
Cell lines were distributed in 96-well plates and incubated with the indicated concentrations of inhibitor for 72 hours. […] Ba/F3 cell lines were plated at 4×10^3 cells/well. HCC78 and mCC cell lines were plated at 1.5×10^3 cells/well. All cell types were seeded in a final volume of 80 microliters. A 20 microliter volume of five-fold concentrated inhibitor media was added. Cell proliferation was measured using a […] viability assay (CellTiter96 Aqueous One® Solution; Promega). A BioTek Synergy 2® plate reader was used to read the absorbance at 490 nm at 30 minutes and 1 hour after addition of MTS. To facilitate comparison between experiments, the raw MTS absorbance of vehicle (0.1% DMSO) treated cells was set to 1 and absorbance from inhibitor treated wells was normalized to the vehicle treated value. […] Data were normalized using Microsoft Excel® and further non-linear regression curve fit analysis of the normalized data for determination of IC50 was performed using Graphpad Prism® software.
The FIG-ROS-S fusion gene was synthesized using the GeneArt® service. FIG-ROS-S is denoted as FIG-ROS herein.

The next assay relates to HCC4011 cells. Kind of assay: Cell viability assay, HCC4011. The format is cell-based, human. The settings on record: HCC4011 cells (activated EGFR), FIG. 6B. The method, then:
IC50 was determined from non-linear regression curve fit analysis of the dose response curves.

A further assay deals with T1, Ba/F3 FIG-ROS cells (Homo sapiens, UniProt P08922).
T1 construct: fused on or other part: GFP is co-expressed from an IRES in pMIG and is not fused; Q9HD26 (Golgi-associated PDZ and coiled-coil motif-containing protein)
Nature of the assay: Cell viability (MTS) assay, Ba/F3 FIG-ROS. The format is cell-based. An excerpt:
Ba/F3 cell lines were maintained at densities of 0.5×10^6 to 1.5×10^6 per ml of media. FIG-ROS and SLC-ROS Ba/F3 lines were created by infecting the parental Ba/F3 with retrovirus expressing either human FIG-ROS-S (indicated FIG-ROS herein) or SLC-ROS-S (indicated SLC-ROS herein). Stable transfectant lines were sorted for GFP expression on a FACS Aria® flow cytometer. Cells were counted daily using Guava ViaCount® reagent and Guava Personal Cell Analysis® flow cytometer. […] Early passage NIH3T3 cells were infected with retrovirus expressing either FIG-ROS or SLC-ROS and sorted for GFP expression as described above for Ba/F3 cells. […] This media is referred to as RPMI-10% FBS herein.
The FIG-ROS-S (FIG-ROS) fusion protein has been reported in non-small cell lung cancers (NSCLC), glioblastomas, and cholangiocarcinomas.

The subject of a further assay is NIH3T3 FIG-ROS cells. Kind of assay: Soft agar colony formation, NIH3T3 FIG-ROS. The format is cell-based. The settings on record: at lower doses than crizotinib. From the text:
The bottom panels are bar graphs indicating the number of colonies formed from the plates depicted in the top panels. The values indicate average colony number±SEM from 4 independent wells.

In assay [2] the target is T2, Ba/F3 SLC-ROS cells (Homo sapiens, UniProt P08922).
T2 construct: SLC-ROS-S (SLC-ROS) was cloned from cDNA made from HCC78 cells; fused on or other part: GFP is co-expressed from an IRES in pMIG and is not fused; O95436 (Sodium-dependent phosphate transport protein 2B)
Nature of the assay: Apoptosis induction (Annexin V / 7-AAD), Ba/F3 SLC-ROS. The following applies: 15 nM, 48 hours. The format is cell-based. The method, then:
FIG. 5A is a set of three bar graphs depicting the induction of apoptosis in Ba/F3 FIG-ROS, Ba/F3 SLC-ROS and Ba/F3 ALK F1174L cells after 48 hours of treatment with the indicated doses of the indicated compounds. The number of cells that were Annexin V and 7-AAD positive after inhibitor treatment was normalized to number of cells staining positive with these markers with vehicle treatment (basal). A minimum of 2000 cells were counted per condition. Rate of apoptosis is shown as fold over basal. Basal apoptosis in Ba/F3 FIG-ROS, Ba/F3 SLC-ROS and Ba/F3 ALK F1174 cells was 3.6%, 2.8% and 1.2% respectively.

The target in assay [3] is T2, Ba/F3 SLC-ROS cells. Kind of assay: Cell viability (MTS) assay, Ba/F3 SLC-ROS. Format: cell-based. The settings on record: 72 hours, read-out: IC50 (the source's name). The protocol:
The parental Ba/F3 cell line was cultured in RPMI 1640 medium with 10% FBS, L-glutamine, penicillin/streptomycin and 15% WEHI-conditioned media. Ba/F3 cell lines were maintained at densities of 0.5×10^6 to 1.5×10^6 per ml of media. FIG-ROS and SLC-ROS Ba/F3 lines were created by infecting the parental Ba/F3 with retrovirus expressing either human FIG-ROS-S (indicated FIG-ROS herein) or SLC-ROS-S (indicated SLC-ROS herein). Stable transfectant lines were sorted for GFP expression on a FACS Aria® flow cytometer. Cells were counted daily using Guava ViaCount® reagent and Guava Personal Cell Analysis® flow cytometer. […] Early passage NIH3T3 cells were infected with retrovirus expressing either FIG-ROS or SLC-ROS and sorted for GFP expression as described above for Ba/F3 cells. HCC78 cells were cultured in RPMI 1640 medium with 10% FBS, L-glutamine, and penicillin/streptomycin. This media is referred to as RPMI-10% FBS herein.
[…]. The Ba/F3 parental line was also tested. (O'Dwyer M E and Druker B J, Lancet Oncology 1, 207-211 (2000); Walters D K et al, Cancer Cell 10, 65-75 (2006); and Heukamp L C et al, Science Translational Medicine 4, 141ra191 (2012); […].

T1 sequence (P08922 whole entry, change not shown, the tested form may be a part): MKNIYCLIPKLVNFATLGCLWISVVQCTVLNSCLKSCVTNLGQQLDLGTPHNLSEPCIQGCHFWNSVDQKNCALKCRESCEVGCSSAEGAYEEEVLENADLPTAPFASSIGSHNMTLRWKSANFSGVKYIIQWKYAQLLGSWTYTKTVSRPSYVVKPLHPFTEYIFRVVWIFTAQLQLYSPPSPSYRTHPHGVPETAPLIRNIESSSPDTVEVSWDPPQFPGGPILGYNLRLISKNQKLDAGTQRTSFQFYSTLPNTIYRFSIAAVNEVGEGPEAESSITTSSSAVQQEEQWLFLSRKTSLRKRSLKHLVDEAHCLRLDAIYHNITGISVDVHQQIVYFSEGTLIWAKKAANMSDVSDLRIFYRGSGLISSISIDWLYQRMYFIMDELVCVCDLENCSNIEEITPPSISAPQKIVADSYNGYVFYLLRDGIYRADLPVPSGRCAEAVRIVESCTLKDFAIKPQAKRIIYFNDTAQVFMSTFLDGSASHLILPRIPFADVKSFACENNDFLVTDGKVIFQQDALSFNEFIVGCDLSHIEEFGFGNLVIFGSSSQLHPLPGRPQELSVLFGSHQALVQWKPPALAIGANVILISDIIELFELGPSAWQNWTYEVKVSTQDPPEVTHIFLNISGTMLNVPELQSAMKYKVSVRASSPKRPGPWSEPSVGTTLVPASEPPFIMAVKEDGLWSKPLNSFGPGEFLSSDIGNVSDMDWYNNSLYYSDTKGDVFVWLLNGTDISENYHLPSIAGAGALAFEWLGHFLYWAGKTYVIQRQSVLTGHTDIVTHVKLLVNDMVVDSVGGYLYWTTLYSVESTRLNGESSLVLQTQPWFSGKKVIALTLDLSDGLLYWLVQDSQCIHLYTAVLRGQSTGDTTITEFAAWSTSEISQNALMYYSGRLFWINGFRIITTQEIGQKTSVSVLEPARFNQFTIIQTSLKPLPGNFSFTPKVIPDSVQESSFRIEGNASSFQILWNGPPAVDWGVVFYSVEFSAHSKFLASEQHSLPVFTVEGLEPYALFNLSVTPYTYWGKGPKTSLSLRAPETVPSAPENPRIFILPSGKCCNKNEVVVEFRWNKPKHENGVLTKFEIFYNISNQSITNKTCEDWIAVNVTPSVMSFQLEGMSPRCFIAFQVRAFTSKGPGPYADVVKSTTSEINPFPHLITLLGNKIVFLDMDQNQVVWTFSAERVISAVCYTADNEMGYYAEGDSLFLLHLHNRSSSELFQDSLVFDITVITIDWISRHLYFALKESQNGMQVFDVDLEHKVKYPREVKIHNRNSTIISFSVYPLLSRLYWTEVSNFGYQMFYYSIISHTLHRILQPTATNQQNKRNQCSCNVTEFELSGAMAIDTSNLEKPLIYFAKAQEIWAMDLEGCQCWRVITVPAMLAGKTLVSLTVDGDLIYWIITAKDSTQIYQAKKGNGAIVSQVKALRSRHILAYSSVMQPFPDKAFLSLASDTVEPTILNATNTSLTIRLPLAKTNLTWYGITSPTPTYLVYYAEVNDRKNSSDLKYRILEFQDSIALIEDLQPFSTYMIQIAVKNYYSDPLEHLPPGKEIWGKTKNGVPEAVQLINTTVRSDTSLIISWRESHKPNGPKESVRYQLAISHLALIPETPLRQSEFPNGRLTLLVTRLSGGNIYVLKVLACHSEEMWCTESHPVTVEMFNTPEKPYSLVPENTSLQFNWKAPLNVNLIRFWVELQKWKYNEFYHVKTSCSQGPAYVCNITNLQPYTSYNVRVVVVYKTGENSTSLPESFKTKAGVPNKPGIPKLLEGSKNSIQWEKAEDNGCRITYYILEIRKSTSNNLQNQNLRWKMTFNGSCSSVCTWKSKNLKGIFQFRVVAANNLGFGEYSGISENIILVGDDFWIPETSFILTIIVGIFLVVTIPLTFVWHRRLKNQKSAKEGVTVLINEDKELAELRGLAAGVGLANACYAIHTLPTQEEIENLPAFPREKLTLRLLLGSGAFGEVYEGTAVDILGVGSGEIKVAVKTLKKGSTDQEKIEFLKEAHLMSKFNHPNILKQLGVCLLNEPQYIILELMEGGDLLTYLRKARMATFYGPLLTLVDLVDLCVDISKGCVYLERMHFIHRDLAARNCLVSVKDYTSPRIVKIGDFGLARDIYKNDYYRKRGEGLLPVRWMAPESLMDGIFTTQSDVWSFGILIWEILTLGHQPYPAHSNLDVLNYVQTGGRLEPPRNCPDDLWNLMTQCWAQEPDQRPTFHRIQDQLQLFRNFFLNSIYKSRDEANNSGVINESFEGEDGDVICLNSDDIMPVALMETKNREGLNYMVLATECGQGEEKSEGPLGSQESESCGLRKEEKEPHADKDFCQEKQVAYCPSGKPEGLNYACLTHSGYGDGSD
T2 sequence (P08922 whole entry, change not shown, the tested form may be a part): as above
Chain of Ba/F3 FIG-ROS kinase domain mutants (P08922 28-2347 limits assumed, stated change not applied): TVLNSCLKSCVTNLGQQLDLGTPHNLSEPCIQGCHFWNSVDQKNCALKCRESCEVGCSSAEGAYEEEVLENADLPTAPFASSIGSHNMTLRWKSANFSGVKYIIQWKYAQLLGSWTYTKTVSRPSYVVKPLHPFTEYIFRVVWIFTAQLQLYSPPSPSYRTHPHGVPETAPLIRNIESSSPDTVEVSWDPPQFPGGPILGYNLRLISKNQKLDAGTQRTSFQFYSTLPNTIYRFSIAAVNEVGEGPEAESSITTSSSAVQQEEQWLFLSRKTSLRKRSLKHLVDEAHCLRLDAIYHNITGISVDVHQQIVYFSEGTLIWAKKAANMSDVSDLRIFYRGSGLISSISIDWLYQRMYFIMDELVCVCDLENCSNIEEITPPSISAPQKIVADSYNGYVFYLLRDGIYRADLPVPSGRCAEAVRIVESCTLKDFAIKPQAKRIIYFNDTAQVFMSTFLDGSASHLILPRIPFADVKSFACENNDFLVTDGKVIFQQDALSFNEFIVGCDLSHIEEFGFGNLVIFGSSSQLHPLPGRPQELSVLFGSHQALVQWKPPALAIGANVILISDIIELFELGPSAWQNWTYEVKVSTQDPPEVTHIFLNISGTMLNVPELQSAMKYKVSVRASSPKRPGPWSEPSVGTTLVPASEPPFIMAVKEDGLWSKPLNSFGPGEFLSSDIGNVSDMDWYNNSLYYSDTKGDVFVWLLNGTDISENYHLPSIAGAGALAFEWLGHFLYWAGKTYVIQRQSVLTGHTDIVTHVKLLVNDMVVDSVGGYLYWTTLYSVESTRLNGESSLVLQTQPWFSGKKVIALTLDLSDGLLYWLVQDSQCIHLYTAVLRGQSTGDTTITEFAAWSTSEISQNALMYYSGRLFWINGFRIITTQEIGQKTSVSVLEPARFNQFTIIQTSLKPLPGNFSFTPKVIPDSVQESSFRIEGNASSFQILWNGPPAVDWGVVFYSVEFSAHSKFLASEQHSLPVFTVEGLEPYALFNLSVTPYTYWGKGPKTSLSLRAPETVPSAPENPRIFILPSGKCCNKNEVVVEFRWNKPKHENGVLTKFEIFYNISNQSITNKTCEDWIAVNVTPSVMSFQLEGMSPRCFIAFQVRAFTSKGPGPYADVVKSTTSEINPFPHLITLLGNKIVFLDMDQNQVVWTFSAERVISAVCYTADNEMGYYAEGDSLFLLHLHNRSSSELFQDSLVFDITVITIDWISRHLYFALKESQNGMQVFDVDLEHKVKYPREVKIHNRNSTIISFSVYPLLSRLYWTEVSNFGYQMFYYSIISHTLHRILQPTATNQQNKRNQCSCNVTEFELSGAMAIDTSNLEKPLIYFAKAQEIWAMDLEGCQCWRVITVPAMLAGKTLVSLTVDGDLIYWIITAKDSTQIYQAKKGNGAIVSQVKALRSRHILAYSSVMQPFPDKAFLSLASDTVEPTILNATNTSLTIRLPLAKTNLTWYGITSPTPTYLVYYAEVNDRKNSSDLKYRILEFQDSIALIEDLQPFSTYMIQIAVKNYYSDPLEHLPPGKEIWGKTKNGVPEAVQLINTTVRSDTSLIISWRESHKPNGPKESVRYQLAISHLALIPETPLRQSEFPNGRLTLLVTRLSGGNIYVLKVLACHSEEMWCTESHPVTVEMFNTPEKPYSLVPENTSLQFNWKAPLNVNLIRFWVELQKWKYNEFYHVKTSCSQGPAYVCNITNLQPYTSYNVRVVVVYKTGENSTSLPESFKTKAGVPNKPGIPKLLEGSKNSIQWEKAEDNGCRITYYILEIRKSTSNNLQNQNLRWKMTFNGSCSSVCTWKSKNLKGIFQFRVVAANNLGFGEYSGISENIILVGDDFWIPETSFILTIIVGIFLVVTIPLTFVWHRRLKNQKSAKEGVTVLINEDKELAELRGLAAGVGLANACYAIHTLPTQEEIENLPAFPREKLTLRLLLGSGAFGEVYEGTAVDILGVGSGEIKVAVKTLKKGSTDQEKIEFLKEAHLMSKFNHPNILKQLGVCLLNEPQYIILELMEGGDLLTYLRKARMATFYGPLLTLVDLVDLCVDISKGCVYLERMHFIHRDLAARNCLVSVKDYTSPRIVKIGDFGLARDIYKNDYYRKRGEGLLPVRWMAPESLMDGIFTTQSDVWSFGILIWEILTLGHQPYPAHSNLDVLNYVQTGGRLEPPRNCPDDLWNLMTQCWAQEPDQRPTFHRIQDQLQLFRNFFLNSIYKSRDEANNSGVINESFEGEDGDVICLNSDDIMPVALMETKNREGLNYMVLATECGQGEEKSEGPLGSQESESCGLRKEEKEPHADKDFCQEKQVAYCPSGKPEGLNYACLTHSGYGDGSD

As to `COc1cc2c(Oc3ccc(NC(=O)C4(C(=O)Nc5ccc(F)cc5)CC4)cc3F)ccnc2cc1OCCCN1CCOCC1` [foretinib, N1′-[3-fluoro-4-[[6-methoxy-7-(3-morpholinopropoxy)-4-quinolyl]oxy]phenyl]-N1-(4-fluorophenyl)cyclopropane-1,1-dicarboxamide], the GI50 in assay [1] was less than 20 nM; on Ba/F3 FIG-ROS cells (Table 3, mutant: None (Ba/F3 FIG-ROS), nM, read-out: IC50 (the source's name)), 2.03 nM; on Ba/F3 FIG-ROS cells (read-out: IC50 (50% growth inhibitory concentration), Ba/F3 FIG-ROS cells, 72 hours, MTS), 2 nM; on Ba/F3 FIG-ROS cells (read-out: IC50 (50% growth inhibitory concentration), Ba/F3 FIG-ROS cells, 72 hours, MTS, listed as Foretinib), 2.2 nM; on Ba/F3 SLC-ROS cells [3], 10 nM. Moreover, the “sensitivity of cell growth” value in the assay with HCC4011 cells was “relatively insensitive”. Also, in the assay on NIH3T3 FIG-ROS cells, the anchorage-independent colony formation result was “strongly suppressed”. Besides, the apoptosis induction entry on Ba/F3 SLC-ROS cells [2] was “induced apoptosis”.
